Measured values: PubChem BioAssay AID248 (DTP/NCI, 2004)
Several values for one entry are separate records, joined by “and”; a condition that tells them apart may be missing. Equal values may be shown once. Toxic doses and inconclusive results are not listed. Rule as the data show it: active = T/C of 150% or more; inactive = T/C below 125%.

Tested on: L1210 leukemia ip in BDF1 mice, survival T/C
Assay: NCI In Vivo Anticancer Drug Screen. Data for tumor model L1210 Leukemia (intraperitoneal) in B6D2F1 (BDF1) mice
Conditions: endpoint: mean survival time, higher = longer survival
In short: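 Tumor was transplanted into mice, which were then dosed with test compound or vehicle alone. Survival was recorded for each group, and the treated figure was expressed relative to the control figure.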

[1] = dose: 100.0 mg/kg/injection, schedule: Q01DX001 (ip), vehicle: saline
[2] = dose: 200.0 mg/kg/injection, schedule: Q01DX001 (ip), vehicle: saline
[3] = dose: 400.0 mg/kg/injection, schedule: Q01DX001 (ip), vehicle: saline
[4] = dose: 100.0 mg/kg/injection, schedule: Q01DX009 (ip), vehicle: saline with Tween-80
[5] = dose: 200.0 mg/kg/injection, schedule: Q01DX009 (ip), vehicle: saline with Tween-80
[6] = dose: 400.0 mg/kg/injection, schedule: Q01DX009 (ip), vehicle: saline with Tween-80
[7] = dose: 100.0 mg/kg/injection, schedule: Q01DX009 (ip), vehicle: Klucel (hydroxypropylcellulose) (HPC)
[8] = dose: 200.0 mg/kg/injection, schedule: Q01DX009 (ip), vehicle: Klucel (hydroxypropylcellulose) (HPC)
[9] = dose: 400.0 mg/kg/injection, schedule: Q01DX009 (ip), vehicle: Klucel (hydroxypropylcellulose) (HPC)
[10] = dose: 100.0 mg/kg/injection, schedule: Q04DX003 (ip), vehicle: saline with Tween-80

Measured: T/C

Cc1nc(N)[nH]c(=O)c1NC(=O)CCc1ccccc1
inactive: dose: 6.25 mg/kg/injection, schedule: Q01DX001 (ip), vehicle: saline with Tween-80 105 % of control | dose: 12.5 mg/kg/injection, schedule: Q01DX001 (ip), vehicle: saline with Tween-80 101 % of control | dose: 25.0 mg/kg/injection, schedule: Q01DX001 (ip), vehicle: saline with Tween-80 98 % of control

C=CCOC(=O)C1OC12CCCCC2 (configuration not stated)
inactive: dose: 50.0 mg/kg/injection, schedule: Q01DX001 (ip), vehicle: saline 104 % of control | [1] 95 % of control | [2] 101 % of control | [3] 98 % of control

CC(=O)Nc1ccc(/C=N/NC(=O)CC2CCCCC2)cc1
inactive: [4] 88 % of control | [5] 93 % of control | [6] 100 % of control

O=C(/C=C\c1ccccc1)c1ccc(Cl)cc1
inactive: [7] 97 % of control | [8] 97 % of control | [9] 100 % of control

CCN(CC)c1ccc(NCS(=O)(=O)O)cc1
inactive: dose: 50.0 mg/kg/injection, schedule: Q01DX009 (ip), vehicle: saline sonified 103 % of control | dose: 100.0 mg/kg/injection, schedule: Q01DX009 (ip), vehicle: saline sonified 101 % of control | dose: 100.0 mg/kg/injection, schedule: Q04DX003 (ip), vehicle: saline 110 % of control

NC(N)=N/N=C/c1cccc(Cl)c1Cl
inactive: dose: 7.5 mg/kg/injection, schedule: Q01DX Z (ip), vehicle: other 97 % of control | dose: 15.0 mg/kg/injection, schedule: Q01DX Z (ip), vehicle: other 100 % of control | dose: 30.0 mg/kg/injection, schedule: Q01DX Z (ip), vehicle: other 92 % of control | dose: 60.0 mg/kg/injection, schedule: Q01DX Z (ip), vehicle: other 86 % of control

COC(=O)c1c[nH]c(=O)cc1O
inactive: [1] 101 % of control | [2] 98 % of control | [3] 98 % of control

CCCCP(=O)(CCCC)Oc1cccc([N+](=O)[O-])c1
inactive: dose: 25.0 mg/kg/injection, schedule: Q04DX003 (ip), vehicle: saline with Tween-80 97 % of control | dose: 50.0 mg/kg/injection, schedule: Q04DX003 (ip), vehicle: saline with Tween-80 96 % of control | [10] 95 % of control and 102 % of control

CCCC(C)OS(=O)(=O)c1ccc(Br)cc1 (configuration not stated)
inactive: dose: 100.0 mg/kg/injection, schedule: Q01DX009 (ip), vehicle: saline 91 % of control | dose: 100.0 mg/kg/injection, schedule: Q04DX002 (ip), vehicle: saline with Tween-80 97 % of control | dose: 200.0 mg/kg/injection, schedule: Q01DX009 (ip), vehicle: saline 96 % of control | dose: 200.0 mg/kg/injection, schedule: Q04DX002 (ip), vehicle: saline with Tween-80 100 % of control | dose: 400.0 mg/kg/injection, schedule: Q01DX009 (ip), vehicle: saline 86 % of control | dose: 400.0 mg/kg/injection, schedule: Q04DX002 (ip), vehicle: saline with Tween-80 97 % of control

Nc1cc(N)c2cccnc2c1O
inactive: dose: 2.0 mg/kg/injection, schedule: Q01DX015 (ip), vehicle: saline 101 % of control | dose: 4.0 mg/kg/injection, schedule: Q01DX015 (ip), vehicle: saline 101 % of control

O=C(C=C(C(F)(F)F)C(F)(F)F)c1cccc(S(=O)(=O)F)c1
inactive: dose: 3.13 mg/kg/injection, schedule: Q01DX009 (ip), vehicle: saline with Tween-80 96 % of control | dose: 6.25 mg/kg/injection, schedule: Q01DX009 (ip), vehicle: saline with Tween-80 100 % of control | dose: 12.5 mg/kg/injection, schedule: Q01DX009 (ip), vehicle: saline with Tween-80 95 % of control

Cc1ccc(C(C)(O)CC(O)(C(F)(F)F)C(F)(F)F)cc1 (configuration not stated)
inactive: dose: 100.0 mg/kg/injection, schedule: Q01DX001 (ip), vehicle: Klucel (hydroxypropylcellulose) (HPC) 104 % of control | [7] 99 % of control | dose: 200.0 mg/kg/injection, schedule: Q01DX001 (ip), vehicle: Klucel (hydroxypropylcellulose) (HPC) 106 % of control | [8] 99 % of control | dose: 400.0 mg/kg/injection, schedule: Q01DX001 (ip), vehicle: Klucel (hydroxypropylcellulose) (HPC) 96 % of control | [9] 98 % of control

N#Cc1ccc(OCc2nc(N)nc(N)c2-c2ccc(Cl)cc2)cc1
inactive: [10] 104 % of control | dose: 200.0 mg/kg/injection, schedule: Q04DX003 (ip), vehicle: saline with Tween-80 100 % of control

COC(=O)C1(COC(C)=O)CC1
inactive: dose: 50.0 mg/kg/injection, schedule: Q01DX001 (ip), vehicle: saline with Tween-80 103 % of control | dose: 100.0 mg/kg/injection, schedule: Q01DX001 (ip), vehicle: saline with Tween-80 97 % of control | dose: 200.0 mg/kg/injection, schedule: Q01DX001 (ip), vehicle: saline with Tween-80 103 % of control

C1CC2CCCN2C1
inactive: dose: 12.5 mg/kg/injection, schedule: Q01DX009 (ip), vehicle: saline 93 % of control | dose: 25.0 mg/kg/injection, schedule: Q01DX009 (ip), vehicle: saline 93 % of control | dose: 50.0 mg/kg/injection, schedule: Q01DX009 (ip), vehicle: saline 95 % of control

NC(=O)OCC(N)C(=O)O (configuration not stated)
inactive: dose: 75.0 mg/kg/injection, schedule: Q01DX001 (ip), vehicle: saline 96 % of control | [4] 89 % of control | dose: 150.0 mg/kg/injection, schedule: Q01DX001 (ip), vehicle: saline 94 % of control | [5] 87 % of control | dose: 300.0 mg/kg/injection, schedule: Q01DX001 (ip), vehicle: saline 100 % of control | [6] 90 % of control
